Results taken from PubChem BioAssay (NCI).
“And” between values parts separate entries of the source, which are not always exact repeats. Equal entries are not always repeated.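 Test compounds were applied to cells in 96-well plates for 48 hours at 5 doses. At the GI50, growth is halved. TGI: concentration producing complete growth inhibition.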

Each compound was assayed on DU-145 prostate (assay: NCI anticancer screen, dose series, 48 h).
In the case of COc1cc(Cn2c3c(c4cc(O)ccc42)Cc2ccccc2C3=O)cc(OC)c1, the TGI was greater than 100 µM. For O=C1/C(=C/c2ccc([N+](=O)[O-])cc2)C(=O)N(c2ccccc2)C1c1ccccc1 (stereo not given), the TGI was greater than 10 µM. NC(N)=NCCC[C@H](N)C(=O)NCC(=O)N[C@@H](CC(=O)O)c1ncc(NC(=O)C(F)(F)F)o1 gave a TGI greater than 25 µM. Cc1cc(S(=O)(=O)N=C2N(Cc3ccccc3)CCN2Cc2ccccc2)c(S)cc1Cl showed a TGI greater than 100 µM. With CCCN1CCC(=O)N(CCC(F)(F)C(F)(F)C(F)(F)C(F)(F)C(F)(F)C(F)(F)F)C1=S the TGI was greater than 100 µM. CSc1ccc2c(cc1=O)[C@@H](NC(=O)c1ccc(N)cc1)CCc1cc(O)c(O)c(O)c1-2 showed a TGI greater than 100 µM. In the case of O=C(c1ccc(N=Cc2ccccc2O)cc1)c1ccc(N=Cc2ccccc2O)cc1, the TGI was greater than 100 µM. In the case of Cn1cc(NC(=O)c2cc(NC(=O)CN=C(N)N)cn2C)cc1C(=O)NCCC(=N)N, the TGI was greater than 100 µM. Work on O=Cc1c(C(=O)O)[nH]c(=O)[nH]c1=O yielded a TGI greater than 100 µM. CCOC(=O)c1cc(C(O)P2(=O)N(CC(C)(C)C)[C@@H]3CCCC[C@H]3N2CC(C)(C)C)cn1C(=O)OC(C)(C)C (stereo not given in full) gave a TGI of 36.2 µM. For Cc1cccc(N=NC(=O)NNc2cccc(C)c2C)c1C, the TGI was greater than 100 µM. For COc1cc(/C=C2/C[C@H]3[C@@H]4CC=C5C[C@@H](O)CC[C@]5(C)[C@H]4CC[C@]3(C)NC2=O)cc(OC)c1OC, the TGI was 23.4 µM. With Nc1cc2[nH]c(=O)c(=O)[nH]c2cc1N the TGI was greater than 100 µM. O=C1C=C(C2=CC(=O)C(=O)c3ccccc32)c2ccccc2C1=O showed a TGI of 29.4 µM. C[N+](C)(C)CC1CCCCCCCCCCC1=O (stereo not given) gave a TGI greater than 100 µM. In the case of CCN(CC)CCNc1nc2ccc([N+](=O)[O-])cc2[n+]([O-])n1, the TGI was greater than 100 µM. Cc1c(S(=O)(=O)/N=C(\NO)Nc2ccc(Cl)c(Cl)c2)sc2ccc(Cl)cc12 showed a TGI of 37.1 µM. NN/C(=N\S(=O)(=O)c1cc2ccccc2s1)Nc1ccc(Cl)cc1 was tested, and the TGI was 32.3 µM.

The compounds below were run on A498 renal (assay: NCI anticancer screen, dose series, 48 h).
With COc1cc(/C=C2\C(=O)N(c3ccccc3)C(c3ccccc3)S2(=O)=O)cc(OC)c1OC (stereo not given) the TGI was greater than 100 µM. For COc1ccc2ccccc2c1/C=C/C(=O)c1ccccc1, the TGI was 10.9 µM. O=C1CSC(c2cccc(Oc3ccccc3)c2)N1c1ccc(Cl)cc1 (stereo not given) showed a TGI of 47.6 µM. For Nc1nc(N)c2ncn(-c3ccc(Cl)cc3)c2n1, the TGI was 83.5 µM. Cc1ccc([N+](=O)[O-])cc1S(=O)(=O)Nc1ccc(C2=NNC(c3ccccc3)C2)cc1 (stereo not given) showed a TGI of 68.9 µM. COc1cc(C(=O)N(Cc2cccnc2)C(=S)N(Cc2cccnc2)C(=O)c2cc(OC)c(OC)c(OC)c2)cc(OC)c1OC was tested, and the TGI was 52.9 µM. COc1cc(CNCc2cc(OC)c(OC)c(OC)c2)cc(OC)c1OC showed a TGI greater than 10 µM. Cc1ccc2c(c1)C(C(=O)N[C@@H]1C(=O)N3[C@@H]1SC(C)(C)[C@@H]3C(=O)O)OCCC2 (stereo not given in full) gave a TGI greater than 100 µM. Work on CCOCc1nc2c(OC)cc(-c3nc4ccc(N5CCN(C)CC5)cc4[nH]3)c(OC)c2[nH]1 yielded a TGI greater than 100 µM. O=C(N/N=C\c1cccc2c([N+](=O)[O-])cccc12)Nc1ccccc1 was tested, and the TGI was 33.4 µM. In the case of CC(=O)OCC12C(=O)C[C@@H](C)C3(CC(c4ccoc4)OC3=O)C1CCC(OC(C)=O)C21CO1 (stereo not given in full), the TGI was greater than 100 µM. CON(C)C(=O)CNC(=O)OCC1c2ccccc2-c2ccccc21 was tested, and the TGI was greater than 100 µM. Cc1cn(C2CC(N(O)Cc3ccccc3)C(CO[Si](C)(C)C(C)(C)C)O2)c(=O)[nH]c1=O (stereo not given) was tested, and the TGI was 48.7 µM and 26.8 µM. For O=C(NI1OC(=O)c2ccccc21)c1ccc(Cl)cc1, the TGI was greater than 100 µM. In the case of O=C(O)Cc1cccc2c(=O)c3ccccc3oc12, the TGI was greater than 100 µM. Work on CC(=O)OC(/C=C/c1ccccc1)=C(OC(C)C)/C1=C(\c2ccccc2)SCCCSC1=O yielded a TGI greater than 100 µM. Compound COc1cccc(-c2ccc3c4c2O[C@H]2C(=O)CC[C@@]5(O)[C@@H](C3)N(CC3CC3)CC[C@]425)c1 has a TGI of 34.1 µM. COc1cc(Cn2c3c(c4cc(O)ccc42)Cc2ccccc2C3=O)cc(OC)c1 gave a TGI greater than 100 µM. Compound O=C1/C(=C/c2ccc([N+](=O)[O-])cc2)C(=O)N(c2ccccc2)C1c1ccccc1 (stereo not given) has a TGI greater than 10 µM. NC(N)=NCCC[C@H](N)C(=O)NCC(=O)N[C@@H](CC(=O)O)c1ncc(NC(=O)C(F)(F)F)o1 showed a TGI greater than 25 µM. Compound Cc1cc(S(=O)(=O)N=C2N(Cc3ccccc3)CCN2Cc2ccccc2)c(S)cc1Cl has a TGI greater than 100 µM. In the case of CCCN1CCC(=O)N(CCC(F)(F)C(F)(F)C(F)(F)C(F)(F)C(F)(F)C(F)(F)F)C1=S, the TGI was greater than 100 µM. CSc1ccc2c(cc1=O)[C@@H](NC(=O)c1ccc(N)cc1)CCc1cc(O)c(O)c(O)c1-2 was tested, and the TGI was greater than 100 µM. For O=C(c1ccc(N=Cc2ccccc2O)cc1)c1ccc(N=Cc2ccccc2O)cc1, the TGI was greater than 100 µM. For Cn1cc(NC(=O)c2cc(NC(=O)CN=C(N)N)cn2C)cc1C(=O)NCCC(=N)N, the TGI was greater than 100 µM. Work on O=Cc1c(C(=O)O)[nH]c(=O)[nH]c1=O yielded a TGI greater than 100 µM. CCOC(=O)c1cc(C(O)P2(=O)N(CC(C)(C)C)[C@@H]3CCCC[C@H]3N2CC(C)(C)C)cn1C(=O)OC(C)(C)C (stereo not given in full) was tested, and the TGI was 65.3 µM. Compound Cc1cccc(N=NC(=O)NNc2cccc(C)c2C)c1C has a TGI of 92.6 µM. In the case of COc1cc(/C=C2/C[C@H]3[C@@H]4CC=C5C[C@@H](O)CC[C@]5(C)[C@H]4CC[C@]3(C)NC2=O)cc(OC)c1OC, the TGI was 55 µM. Nc1cc2[nH]c(=O)c(=O)[nH]c2cc1N was tested, and the TGI was greater than 100 µM. Work on O=C1C=C(C2=CC(=O)C(=O)c3ccccc32)c2ccccc2C1=O yielded a TGI greater than 100 µM. Work on C[N+](C)(C)CC1CCCCCCCCCCC1=O (stereo not given) yielded a TGI greater than 100 µM. CCN(CC)CCNc1nc2ccc([N+](=O)[O-])cc2[n+]([O-])n1 was tested, and the TGI was 49.7 µM. Cc1c(S(=O)(=O)/N=C(\NO)Nc2ccc(Cl)c(Cl)c2)sc2ccc(Cl)cc12 showed a TGI of 38.2 µM. NN/C(=N\S(=O)(=O)c1cc2ccccc2s1)Nc1ccc(Cl)cc1 gave a TGI of 39.5 µM.

What follows are compounds tested on HL-60(TB) leukemia (assay: NCI anticancer screen, dose series, 48 h).
Work on COc1cc(/C=C2\C(=O)N(c3ccccc3)C(c3ccccc3)S2(=O)=O)cc(OC)c1OC (stereo not given) yielded a TGI greater than 100 µM. COc1ccc2ccccc2c1/C=C/C(=O)c1ccccc1 was tested, and the TGI was 4.33 µM. O=C1CSC(c2cccc(Oc3ccccc3)c2)N1c1ccc(Cl)cc1 (stereo not given) gave a TGI greater than 100 µM. In the case of Nc1nc(N)c2ncn(-c3ccc(Cl)cc3)c2n1, the TGI was greater than 100 µM. Cc1ccc([N+](=O)[O-])cc1S(=O)(=O)Nc1ccc(C2=NNC(c3ccccc3)C2)cc1 (stereo not given) was tested, and the TGI was 54.2 µM. COc1cc(C(=O)N(Cc2cccnc2)C(=S)N(Cc2cccnc2)C(=O)c2cc(OC)c(OC)c(OC)c2)cc(OC)c1OC was tested, and the TGI was greater than 100 µM. Work on COc1cc(CNCc2cc(OC)c(OC)c(OC)c2)cc(OC)c1OC yielded a TGI greater than 6.74 µM. With Cc1ccc2c(c1)C(C(=O)N[C@@H]1C(=O)N3[C@@H]1SC(C)(C)[C@@H]3C(=O)O)OCCC2 (stereo not given in full) the TGI was greater than 100 µM. Work on CCOCc1nc2c(OC)cc(-c3nc4ccc(N5CCN(C)CC5)cc4[nH]3)c(OC)c2[nH]1 yielded a TGI of 21.1 µM. In the case of O=C(N/N=C\c1cccc2c([N+](=O)[O-])cccc12)Nc1ccccc1, the TGI was 72.6 µM. In the case of CC(=O)OCC12C(=O)C[C@@H](C)C3(CC(c4ccoc4)OC3=O)C1CCC(OC(C)=O)C21CO1 (stereo not given in full), the TGI was greater than 100 µM. CON(C)C(=O)CNC(=O)OCC1c2ccccc2-c2ccccc21 showed a TGI of 90.9 µM. Compound Cc1cn(C2CC(N(O)Cc3ccccc3)C(CO[Si](C)(C)C(C)(C)C)O2)c(=O)[nH]c1=O (stereo not given) has a TGI greater than 100 µM. O=C(NI1OC(=O)c2ccccc21)c1ccc(Cl)cc1 was tested, and the TGI was greater than 100 µM. Work on O=C(O)Cc1cccc2c(=O)c3ccccc3oc12 yielded a TGI greater than 100 µM. CC(=O)OC(/C=C/c1ccccc1)=C(OC(C)C)/C1=C(\c2ccccc2)SCCCSC1=O gave a TGI greater than 100 µM. Compound COc1cccc(-c2ccc3c4c2O[C@H]2C(=O)CC[C@@]5(O)[C@@H](C3)N(CC3CC3)CC[C@]425)c1 has a TGI of 40.5 µM. COc1cc(Cn2c3c(c4cc(O)ccc42)Cc2ccccc2C3=O)cc(OC)c1 was tested, and the TGI was greater than 100 µM. With O=C1/C(=C/c2ccc([N+](=O)[O-])cc2)C(=O)N(c2ccccc2)C1c1ccccc1 (stereo not given) the TGI was greater than 10 µM. Compound NC(N)=NCCC[C@H](N)C(=O)NCC(=O)N[C@@H](CC(=O)O)c1ncc(NC(=O)C(F)(F)F)o1 has a TGI greater than 25 µM. For Cc1cc(S(=O)(=O)N=C2N(Cc3ccccc3)CCN2Cc2ccccc2)c(S)cc1Cl, the TGI was greater than 100 µM. With CCCN1CCC(=O)N(CCC(F)(F)C(F)(F)C(F)(F)C(F)(F)C(F)(F)C(F)(F)F)C1=S the TGI was greater than 100 µM. For CSc1ccc2c(cc1=O)[C@@H](NC(=O)c1ccc(N)cc1)CCc1cc(O)c(O)c(O)c1-2, the GI50 was greater than 75 µM and the TGI was greater than 75 µM. O=C(c1ccc(N=Cc2ccccc2O)cc1)c1ccc(N=Cc2ccccc2O)cc1 gave a TGI greater than 100 µM. For Cn1cc(NC(=O)c2cc(NC(=O)CN=C(N)N)cn2C)cc1C(=O)NCCC(=N)N, the TGI was greater than 100 µM. With O=Cc1c(C(=O)O)[nH]c(=O)[nH]c1=O the TGI was greater than 100 µM. CCOC(=O)c1cc(C(O)P2(=O)N(CC(C)(C)C)[C@@H]3CCCC[C@H]3N2CC(C)(C)C)cn1C(=O)OC(C)(C)C (stereo not given in full) was tested, and the TGI was 48.6 µM. In the case of Cc1cccc(N=NC(=O)NNc2cccc(C)c2C)c1C, the TGI was 57.1 µM. Compound COc1cc(/C=C2/C[C@H]3[C@@H]4CC=C5C[C@@H](O)CC[C@]5(C)[C@H]4CC[C@]3(C)NC2=O)cc(OC)c1OC has a TGI greater than 100 µM. For Nc1cc2[nH]c(=O)c(=O)[nH]c2cc1N, the TGI was greater than 100 µM. For O=C1C=C(C2=CC(=O)C(=O)c3ccccc32)c2ccccc2C1=O, the TGI was greater than 100 µM. Compound C[N+](C)(C)CC1CCCCCCCCCCC1=O (stereo not given) has a TGI greater than 100 µM. Compound CCN(CC)CCNc1nc2ccc([N+](=O)[O-])cc2[n+]([O-])n1 has a TGI of 17.9 µM. With Cc1c(S(=O)(=O)/N=C(\NO)Nc2ccc(Cl)c(Cl)c2)sc2ccc(Cl)cc12 the TGI was 77.3 µM. For NN/C(=N\S(=O)(=O)c1cc2ccccc2s1)Nc1ccc(Cl)cc1, the TGI was 48 µM.

What follows are compounds tested on HT29 colon (assay: NCI anticancer screen, dose series, 48 h).
COc1cc(/C=C2\C(=O)N(c3ccccc3)C(c3ccccc3)S2(=O)=O)cc(OC)c1OC (stereo not given) showed a TGI of 94.1 µM.
